According to EP0187355A1, “Process for preparing beta-lactam antibiotics” (E.R. Squibb & Sons, Inc., priority 1981, dated 1982):
Where a name gives a salt, the structure may show the parent alone. Read-outs that look alike come from different tables or passages of the source.

Key:
Experiment in all cases: MIC, agar dilution
Assay type in all cases: cell-based
[1] = tested on: Micrococcus luteus, 2495; settings: Micrococcus luteus, 2495, 18 h, K-10 agar, 10^4 CFU, 37°C, read-out: M.I.C.
Procedure: (§1) The following methodology is used to determine the minimum inhibitory concentration (hereinafter referred to as MIC) of the […] of this invention.
(§2) The test organisms are grown in approximately 15-20 ml of Antibiotic Assay broth (Difco) by inoculating (in tubes) the broth with a loopful of the organism from a BHI (Difco) agar slant. The inoculated tubes are incubated at 37°C for 18 to 20 hours. These cultures are assumed to contain 10^9 colony forming units (hereinafter CFU) per milliliter. The cultures are diluted 1:100 to give a final inoculum level of 10^4 CFU; dilutions are made with K-10 broth^*.
(§3) The compounds are dissolved in the appropriate diluent at a concentration of 1000 µg/ml. Twofold dilutions are made in K-10 broth resulting in a range from 1000 µg/ml to 0.5 µg/ml. 1.5 ml of each dilution is placed into individual square petri dishes to which 13.5 ml of K-10 agar^** is added. The final drug concentration in the agar ranges from 100 µg/ml to 0.05 µg/ml. Organism growth control plates containing agar only are prepared and inoculated before and after the test plates. The organisms are applied to the agar surface of each plate with the Denley Multipoint Inoculator (which delivers approximately 0.001 ml of each organism) resulting in a final inoculum level of 10^4 CFU on the agar surface.
(§4) The MIC is the lowest concentration of compound inhibiting growth of the organism.
(§5) The number following each organism refers to the number of the organism in the collection of E. R. Squibb & Sons,.Inc., Princeton, New Jersey. […] The symbol "N.T." means not tested.

[2] = tested on: Streptococcus agalactiae, 9287; settings: Streptococcus agalactiae, 9287, 18 h, K-10 agar, 10^4 CFU, 37°C, read-out: M.I.C.
Procedure: as §1, §2, §3, §4, §5

[3] = tested on: Enterobacter cloacae, 8236; settings: Enterobacter cloacae, 8236, 18 h, K-10 agar, 10^4 CFU, 37°C
Procedure: as §1, §2, §3, §4, §5

[4] = tested on: Pseudomonas aeruginosa, 9545; settings: Pseudomonas aeruginosa, 9545, 18 h, K-10 agar, 10^4 CFU, 37°C, read-out: M.I.C.
Procedure: as §1, §2, §3
(§6) The plates are incubated at 37 °C for 18 hours and the MIC's are determined. The MIC is the lowest concentration of compound inhibiting growth of the organism.
(§7) The tables that follow are tabulated results obtained when the B-lactams of this invention are tested against various organisms. The number following each organism refers to the number of the organism in the collection of E. R. Squibb & Sons,.Inc., Princeton, New Jersey. […] The symbol "N.T." means not tested.

[5] = tested on: Salmonella typhosa, 1195; settings: Salmonella enterica, TYPHOSA, 18 h, K-10 agar, 10^4 CFU, 37°C
Procedure: as §1, §2, §3, §6, §7

[6] = tested on: Klebsiella pneumoniae, 9527; settings: Klebsiella pneumoniae, 9527, 18 h, K-10 agar, 10^4 CFU, 37°C, read-out: M.I.C.
Procedure: as §1, §2, §3, §6, §7

[7] = tested on: Streptococcus faecalis, 9011; settings: Enterococcus faecalis; Streptococcus faecalis, 9011; K-10 agar, 10^4 CFU, 37°C, 18 hours; read-out: M.I.C.
Procedure: as §1, §2, §3, §6, §7

[8] = tested on: Citrobacter freundii, 9518; settings: K-10 agar, 10^4 CFU, 37°C, 18 hours, read-out: M.I.C.
Procedure: as §1, §2, §3, §6, §7

[9] = tested on: Escherichia coli, 8294; settings: Escherichia coli, 8294, 18 h, K-10 agar, 10^4 CFU, 37°C
Procedure: as §1, §2, §3, §6, §7

[10] = tested on: Serratia marcescens, 9783; settings: Serratia marcescens, 9783, 18 h, K-10 agar, 10^4 CFU, 37°C, read-out: M.I.C.
Procedure: as §1, §2, §3, §6, §7

[11] = tested on: Staphylococcus aureus, 10165; settings: Staphylococcus aureus, 10165; K-10 agar, 10^4 CFU, 37°C, 18 hours; read-out: M.I.C.
Procedure: as §1, §2, §3, §6, §7

[12] = tested on: Proteus mirabilis, 3855; settings: Proteus mirabilis, 3855, 18 h, K-10 agar, 10^4 CFU, 37°C
Procedure: as §1, §2, §3, §6, §7

[13] = tested on: Staphylococcus aureus, 2399; settings: Staphylococcus aureus, 2399, 18 h, Staphylococcus aureus, 2399; K-10 agar, 10^4 CFU, 37°C, 18 hours; read-out: M.I.C.
Procedure: as §1, §2, §3, §6, §7

[14] = tested on: Acinetobacter calcoaceticus, 8333; settings: Acinetobacter calcoaceticus, 8333, 18 h, K-10 agar, 10^4 CFU, 37°C, read-out: M.I.C.
Procedure: as §1, §2, §3, §6, §7

[15] = tested on: Pseudomonas aeruginosa, 8329; settings: K-10 agar, 10^4 CFU, 37°C, 18 hours, read-out: M.I.C.
Procedure: as §1, §2, §3, §6, §7

[16] = tested on: Staphylococcus aureus, 2400; settings: Staphylococcus aureus, 2400; K-10 agar, 10^4 CFU, 37°C, 18 hours; read-out: M.I.C.
Procedure: as §1, §2, §3, §6, §7

[17] = tested on: Staphylococcus aureus, 1276; settings: Staphylococcus aureus, 1276; K-10 agar, 10^4 CFU, 37°C, 18 hours; read-out: M.I.C.
Procedure: as §1, §2, §3, §6, §7

[18] = tested on: Escherichia coli, 10896; settings: K-10 agar, 10^4 CFU, 37°C, 18 hours
Procedure: as §1, §2, §3, §6, §7

[19] = tested on: Enterobacter aerogenes, 10078; settings: Klebsiella aerogenes, 10078, 18 h, Enterobacter aerogenes, 10078; K-10 agar, 10^4 CFU, 37°C, 18 hours; read-out: M.I.C.
Procedure: as §1, §2, §3, §6, §7

[20] = tested on: Shigella sonnei, 8449; settings: Shigella sonnei, 8449, 18 h, K-10 agar, 10^4 CFU, 37°C
Procedure: as §1, §2, §3, §6, §7

[21] = tested on: Proteus vulgaris, 9416; settings: K-10 agar, 10^4 CFU, 37°C
Procedure: as §1, §2, §3, §6, §7

[22] = tested on: Klebsiella aerogenes, 10440; settings: K-10 agar, 10^4 CFU, 37°C, 18 hours, read-out: M.I.C.
Procedure: as §1, §2, §3, §6, §7

[23] = tested on: Escherichia coli, 10909; settings: K-10 agar, 10^4 CFU, 37°C, 18 hours
Procedure: as §1, §2, §3, §6, §7

[24] = tested on: Escherichia coli, 10857; settings: Escherichia coli, 10857, 18 h, K-10 agar, 10^4 CFU, 37°C
Procedure: as §1, §2, §3, §6, §7

[25] = tested on: Proteus rettgeri, 8479; settings: Providencia rettgeri, K-10 agar, 10^4 CFU, 37°C, 18 hours, read-out: M.I.C.
Procedure: as §1, §2, §3, §6, §7

Row | Compound | MIC [1] [µg/mL] | MIC [2] [µg/mL] | MIC [3] [µg/mL] | MIC [4] [µg/mL] | MIC [5] [µg/mL] | MIC [6] [µg/mL] | MIC [7] [µg/mL] | MIC [8] [µg/mL] | MIC [9] [µg/mL] | MIC [10] [µg/mL] | MIC [11] [µg/mL] | MIC [13] [µg/mL] | MIC [14] [µg/mL] | MIC [15] [µg/mL] | MIC [16] [µg/mL] | MIC [17] [µg/mL] | MIC [18] [µg/mL] | MIC [19] [µg/mL] | MIC [20] [µg/mL] | MIC [22] [µg/mL] | other results
1 | CC1C(NC(=O)Cc2ccccc2)C(=O)N1S(=O)(=O)O (racemic) [Example 4, (cis)-4-Methyl-2-oxo-3-[(phenylacetyl)amino]-1-azetidinesulfonic acid, potassium salt] | 50 | 12.5 | > 100 | > 100 | 100 | 100 | > 100 | > 100 | 100 | > 100 | 100 | 25 | > 100 | > 100 | 50 | 25 | 100 | > 100 | 100 | > 100 | MIC ([12]; read-out: M.I.C.): > 100 µg/mL; MIC ([21]; 18 hours, read-out: M.I.C.): > 100 µg/mL; MIC [23]: 50 µg/mL; MIC [24]: 50 µg/mL; MIC [25]: 100 µg/mL
2 | CON=C(C(=O)NC1C(=O)N(S(=O)(=O)O)C1C)c1csc(N)n1 (racemic) [Example 7, [3α(Z),4α]-3-[[(2-Amino-4-thiazolyl) (methoxy-imino)acetyl]amino]-4-methyl-2-oxo-l-azetidinesulfonic acid, potassium salt] | 6.3 | 3.1 | 0.2 | 0.8 | < 0.05 | 0.1 | > 100 | 0.2 | 0.2 | 0.4 | > 100 | 100 | 50 | > 100 | 50 | 100 | 0.2 | 0.4 | 0.2 | 0.4 | MIC ([12]; read-out: M.I.C.): < 0.05 µg/mL; MIC ([21]; 18 hours, read-out: M.I.C.): < 0.05 µg/mL; MIC [23]: 0.1 µg/mL; MIC [24]: < 0.05 µg/mL; MIC [25]: < 0.05 µg/mL
3 | CC1C(NC(=O)C(NC(=O)C(N)=O)c2cccs2)C(=O)N1S(=O)(=O)O (racemic) [Example 14, [3S-[3α(±),4β]]-3-[[[(aminooxoacetyl)amino]-2-thienylacetyl]amino]-4-methyl-2-oxo-1-azetidine-sulfonic acid, potassium salt] | 12.5 | 3.1 | 3.1 | 3.1 | 0.8 | 1.6 | > 100 | 1.6 | 1.6 | 3.1 | > 100 | 50 | 100 | 100 | 100 | 50 | 1.6 | 3.1 | 0.8 | 3.1 | MIC ([12]; read-out: M.I.C.): 0.8 µg/mL; MIC ([21]; 18 hours, read-out: M.I.C.): 0.8 µg/mL; MIC [23]: 0.8 µg/mL; MIC [24]: 0.4 µg/mL; MIC [25]: 0.8 µg/mL
4 | CO/N=C(\C(=O)NC1C(=O)N(S(=O)(=O)O)C1(C)C)c1csc(N)n1 (racemic) [Example 25, [3±(Z)]-3-[[(2-Amino-4-thiazolyl) (methoxyimino)-acet^yl]amino]-4,4-dimethyl-2-oxo-1-azetidinesulfonic acid, potassium salt] | > 100 | > 100 | 100 | > 100 | 12.5 | 6.3 | > 100 | 25 | 50 | 100 | > 100 | > 100 | > 100 | > 100 | > 100 | > 100 | 25 | 100 | 25 | 100 | MIC [12]: 12.5 µg/mL; MIC ([21]; Proteus vulgaris, 9416, 18 h): 12.5 µg/mL; MIC [23]: 25 µg/mL; MIC [24]: 6.3 µg/mL; MIC [25]: 0.8 µg/mL
